# Reference: article PMC12090182, “Repurposing of the RIPK1-Selective Benzo[1,4]oxazepin-4-one Scaffold for the Development of a Type III LIMK1/2 Inhibitor” (ACS Chemical Biology, 2025)
# Where two headings read alike, the source gives them in different places.
# Tests used:
# U2OS cells = type: cell-based
# Outline: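 HEK293T and U2OS cells (DMEM) and MRC-9 fibroblasts (EMEM) exposed to compounds at 1 and 10 μM. Live-cell confocal imaging of cell shape and fluorescence before and at 12, 24 and 48 h. Normalized to 0.1% DMSO; biological duplicates with SEM.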
# CSNK2A2 = CSNK2A2 (Homo sapiens, UniProt P19784); assay: DSF selectivity screening; type: binding; conditions: 10 μM compound
# Protocol: The assay was performed as previously described.[29],[35] Briefly, recombinant protein kinase domains at a concentration of 2 μM were mixed with a 10 μM compound in a buffer containing 20 mM HEPES, pH 7.5, and 500 mM NaCl. SYPRO Orange (5000×, Invitrogen) was added as a fluorescence probe (1 μL per mL). Subsequently, temperature-dependent protein unfolding profiles were measured using a QuantStudio 5 real-time PCR machine (Thermo Fisher). Excitation and emission filters were set to 465 and 590 nm, respectively. The temperature was raised with a step rate of 3 °C per minute. Data points were analyzed with internal software (Thermal Shift Software version 1.4, Thermo Fisher) using the Boltzmann equation to determine the inflection point of the transition curve (Table S4).
# [1] = 1 µM, 0 h, U2OS, biological replicate 1
# [2] = 1 µM, 0 h, U2OS, biological replicate 2
# [3] = 1 µM, 12 h, U2OS, biological replicate 1
# [4] = 1 µM, 12 h, U2OS, biological replicate 2
# [5] = 1 µM, 24 h, U2OS, biological replicate 1
# [6] = 1 µM, 24 h, U2OS, biological replicate 2
# [7] = 1 µM, 48 h, U2OS, biological replicate 1
# [8] = 1 µM, 48 h, U2OS, biological replicate 2
# [9] = 10 µM, 0 h, U2OS, biological replicate 1
# [10] = 10 µM, 0 h, U2OS, biological replicate 2
# [11] = 10 µM, 12 h, U2OS, biological replicate 1
# [12] = 10 µM, 12 h, U2OS, biological replicate 2
# [13] = 10 µM, 24 h, U2OS, biological replicate 1
# [14] = 10 µM, 24 h, U2OS, biological replicate 2
# [15] = 10 µM, 48 h, U2OS, biological replicate 1
# [16] = 10 µM, 48 h, U2OS, biological replicate 2
# Chain of CSNK2A2 (P19784 1-334): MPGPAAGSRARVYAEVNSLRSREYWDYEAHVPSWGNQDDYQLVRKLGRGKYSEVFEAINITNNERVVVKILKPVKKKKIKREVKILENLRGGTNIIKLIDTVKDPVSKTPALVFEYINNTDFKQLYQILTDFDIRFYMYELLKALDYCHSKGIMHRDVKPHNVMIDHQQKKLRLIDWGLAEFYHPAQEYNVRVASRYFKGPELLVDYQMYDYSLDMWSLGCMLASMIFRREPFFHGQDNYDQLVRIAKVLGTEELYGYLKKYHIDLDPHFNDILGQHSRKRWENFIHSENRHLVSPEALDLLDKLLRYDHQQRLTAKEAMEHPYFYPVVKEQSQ
smiles,measurement,setting,value
CC(C)C(=O)Nc1ncc(-c2cc(C(F)F)nn2-c2c(Cl)cccc2Cl)s1 [LIMKi3],Cell count normalized to cells treated with DMSO control,U2OS cells; [1],1.067
same,Cell count per well,U2OS cells; [1],222
same,Population Fragmented Nuclei (%),U2OS cells; [1],50.47%
same,Population Healthy Nuclei (%),U2OS cells; [1],44.34%
same,Population Pyknosed Nuclei (%),U2OS cells; [1],5.19%
same,Population apoptotic cell (%),U2OS cells; [1],81.82%
same,Population cell that influence microtubule strucutre (%),U2OS cells; [1],3.19%
same,Population with increased mitochondrial mass (%),U2OS cells; [1],4.26%
same,Population with membrane disruption (%),U2OS cells; [1],8.51%
same,Cell count normalized to cells treated with DMSO control,U2OS cells; [2],1.097
same,Cell count per well,U2OS cells; [2],94
same,Population Fragmented Nuclei (%),U2OS cells; [2],27.47%
same,Population Healthy Nuclei (%),U2OS cells; [2],63.74%
same,Population Pyknosed Nuclei (%),U2OS cells; [2],8.79%
same,Population apoptotic cell (%),U2OS cells; [2],100.00%
same,Population cell that influence microtubule strucutre (%),U2OS cells; [2],5.17%
same,Population with increased mitochondrial mass (%),U2OS cells; [2],1.72%
same,Population with membrane disruption (%),U2OS cells; [2],5.17%
same,Cell count normalized to cells treated with DMSO control,U2OS cells; [3],0.9868
same,Cell count per well,U2OS cells; [3],261
same,Population Fragmented Nuclei (%),U2OS cells; [3],35.71%
same,Population Healthy Nuclei (%),U2OS cells; [3],57.94%
same,Population Pyknosed Nuclei (%),U2OS cells; [3],6.35%
same,Population apoptotic cell (%),U2OS cells; [3],81.25%
same,Population cell that influence microtubule strucutre (%),U2OS cells; [3],3.42%
same,Population with increased mitochondrial mass (%),U2OS cells; [3],2.05%
same,Population with membrane disruption (%),U2OS cells; [3],6.85%
same,Cell count normalized to cells treated with DMSO control,U2OS cells; [4],1.091
same,Cell count per well,U2OS cells; [4],129
same,Population Fragmented Nuclei (%),U2OS cells; [4],18.25%
same,Population Healthy Nuclei (%),U2OS cells; [4],76.98%
same,Population Pyknosed Nuclei (%),U2OS cells; [4],4.76%
same,Population apoptotic cell (%),U2OS cells; [4],100.00%
same,Population cell that influence microtubule strucutre (%),U2OS cells; [4],4.12%
same,Population with increased mitochondrial mass (%),U2OS cells; [4],4.12%
same,Population with membrane disruption (%),U2OS cells; [4],5.15%
same,Cell count normalized to cells treated with DMSO control,U2OS cells; [5],0.9303
same,Cell count per well,U2OS cells; [5],290
same,Population Fragmented Nuclei (%),U2OS cells; [5],30.77%
same,Population Healthy Nuclei (%),U2OS cells; [5],62.24%
same,Population Pyknosed Nuclei (%),U2OS cells; [5],6.99%
same,Population apoptotic cell (%),U2OS cells; [5],80.00%
same,Population cell that influence microtubule strucutre (%),U2OS cells; [5],2.25%
same,Population with increased mitochondrial mass (%),U2OS cells; [5],3.37%
same,Population with membrane disruption (%),U2OS cells; [5],5.06%
same,Cell count normalized to cells treated with DMSO control,U2OS cells; [6],1.125
same,Cell count per well,U2OS cells; [6],160
same,Population Fragmented Nuclei (%),U2OS cells; [6],21.52%
same,Population Healthy Nuclei (%),U2OS cells; [6],67.72%
same,Population Pyknosed Nuclei (%),U2OS cells; [6],10.76%
same,Population apoptotic cell (%),U2OS cells; [6],70.59%
same,Population cell that influence microtubule strucutre (%),U2OS cells; [6],1.87%
same,Population with increased mitochondrial mass (%),U2OS cells; [6],2.80%
same,Population with membrane disruption (%),U2OS cells; [6],4.67%
same,Cell count normalized to cells treated with DMSO control,U2OS cells; [7],0.8403
same,Cell count per well,U2OS cells; [7],374
same,Population Fragmented Nuclei (%),U2OS cells; [7],26.78%
same,Population Healthy Nuclei (%),U2OS cells; [7],61.48%
same,Population Pyknosed Nuclei (%),U2OS cells; [7],11.75%
same,Population apoptotic cell (%),U2OS cells; [7],86.05%
same,Population cell that influence microtubule strucutre (%),U2OS cells; [7],4.44%
same,Population with increased mitochondrial mass (%),U2OS cells; [7],2.67%
same,Population with membrane disruption (%),U2OS cells; [7],6.22%
same,Cell count normalized to cells treated with DMSO control,U2OS cells; [8],0.9779
same,Cell count per well,U2OS cells; [8],202
same,Population Fragmented Nuclei (%),U2OS cells; [8],17.50%
same,Population Healthy Nuclei (%),U2OS cells; [8],70.50%
same,Population Pyknosed Nuclei (%),U2OS cells; [8],12.00%
same,Population apoptotic cell (%),U2OS cells; [8],87.50%
same,Population cell that influence microtubule strucutre (%),U2OS cells; [8],4.26%
same,Population with increased mitochondrial mass (%),U2OS cells; [8],2.13%
same,Population with membrane disruption (%),U2OS cells; [8],6.38%
same,Cell count normalized to cells treated with DMSO control,U2OS cells; [9],1.081
same,Cell count per well,U2OS cells; [9],225
same,Population Fragmented Nuclei (%),U2OS cells; [9],43.12%
same,Population Healthy Nuclei (%),U2OS cells; [9],50.46%
same,Population Pyknosed Nuclei (%),U2OS cells; [9],6.42%
same,Population apoptotic cell (%),U2OS cells; [9],78.57%
same,Population cell that influence microtubule strucutre (%),U2OS cells; [9],4.55%
same,Population with increased mitochondrial mass (%),U2OS cells; [9],3.64%
same,Population with membrane disruption (%),U2OS cells; [9],7.27%
same,Cell count normalized to cells treated with DMSO control,U2OS cells; [10],1.132
same,Cell count per well,U2OS cells; [10],97
same,Population Fragmented Nuclei (%),U2OS cells; [10],17.53%
same,Population Healthy Nuclei (%),U2OS cells; [10],71.13%
same,Population Pyknosed Nuclei (%),U2OS cells; [10],11.34%
same,Population apoptotic cell (%),U2OS cells; [10],90.91%
same,Population cell that influence microtubule strucutre (%),U2OS cells; [10],5.80%
same,Population with increased mitochondrial mass (%),U2OS cells; [10],10.14%
same,Population with membrane disruption (%),U2OS cells; [10],5.80%
same,Cell count normalized to cells treated with DMSO control,U2OS cells; [11],0.8507
same,Cell count per well,U2OS cells; [11],225
same,Population Fragmented Nuclei (%),U2OS cells; [11],35.24%
same,Population Healthy Nuclei (%),U2OS cells; [11],45.24%
same,Population Pyknosed Nuclei (%),U2OS cells; [11],19.52%
same,Population apoptotic cell (%),U2OS cells; [11],63.41%
same,Population cell that influence microtubule strucutre (%),U2OS cells; [11],84.21%
same,Population with increased mitochondrial mass (%),U2OS cells; [11],51.58%
same,Population with membrane disruption (%),U2OS cells; [11],77.89%
same,Cell count normalized to cells treated with DMSO control,U2OS cells; [12],0.9469
same,Cell count per well,U2OS cells; [12],112
same,Population Fragmented Nuclei (%),U2OS cells; [12],12.15%
same,Population Healthy Nuclei (%),U2OS cells; [12],68.22%
same,Population Pyknosed Nuclei (%),U2OS cells; [12],19.63%
same,Population apoptotic cell (%),U2OS cells; [12],57.14%
same,Population cell that influence microtubule strucutre (%),U2OS cells; [12],86.30%
same,Population with increased mitochondrial mass (%),U2OS cells; [12],68.49%
same,Population with membrane disruption (%),U2OS cells; [12],67.12%
same,Cell count normalized to cells treated with DMSO control,U2OS cells; [13],0.7058
same,Cell count per well,U2OS cells; [13],220
same,Population Fragmented Nuclei (%),U2OS cells; [13],35.92%
same,Population Healthy Nuclei (%),U2OS cells; [13],37.86%
same,Population Pyknosed Nuclei (%),U2OS cells; [13],26.21%
same,Population apoptotic cell (%),U2OS cells; [13],55.56%
same,Population cell that influence microtubule strucutre (%),U2OS cells; [13],78.21%
same,Population with increased mitochondrial mass (%),U2OS cells; [13],65.38%
same,Population with membrane disruption (%),U2OS cells; [13],65.38%
same,Cell count normalized to cells treated with DMSO control,U2OS cells; [14],0.7383
same,Cell count per well,U2OS cells; [14],105
same,Population Fragmented Nuclei (%),U2OS cells; [14],11.11%
same,Population Healthy Nuclei (%),U2OS cells; [14],58.59%
same,Population Pyknosed Nuclei (%),U2OS cells; [14],30.30%
same,Population apoptotic cell (%),U2OS cells; [14],60.00%
same,Population cell that influence microtubule strucutre (%),U2OS cells; [14],75.86%
same,Population with increased mitochondrial mass (%),U2OS cells; [14],65.52%
same,Population with membrane disruption (%),U2OS cells; [14],53.45%
same,Cell count normalized to cells treated with DMSO control,U2OS cells; [15],0.528
same,Cell count per well,U2OS cells; [15],235
same,Population Fragmented Nuclei (%),U2OS cells; [15],37.96%
same,Population Healthy Nuclei (%),U2OS cells; [15],28.70%
same,Population Pyknosed Nuclei (%),U2OS cells; [15],33.33%
same,Population apoptotic cell (%),U2OS cells; [15],68.06%
same,Population cell that influence microtubule strucutre (%),U2OS cells; [15],77.42%
same,Population with increased mitochondrial mass (%),U2OS cells; [15],54.84%
same,Population with membrane disruption (%),U2OS cells; [15],80.65%
same,Cell count normalized to cells treated with DMSO control,U2OS cells; [16],0.6342
same,Cell count per well,U2OS cells; [16],131
same,Population Fragmented Nuclei (%),U2OS cells; [16],20.83%
same,Population Healthy Nuclei (%),U2OS cells; [16],49.17%
same,Population Pyknosed Nuclei (%),U2OS cells; [16],30.00%
same,Population apoptotic cell (%),U2OS cells; [16],77.78%
same,Population cell that influence microtubule strucutre (%),U2OS cells; [16],77.97%
same,Population with increased mitochondrial mass (%),U2OS cells; [16],54.24%
same,Population with membrane disruption (%),U2OS cells; [16],67.80%
CN1C(=O)[C@@H](N2CCc3c(C(N)=O)nn(Cc4ccccc4)c3C2=O)COc2ccccc21 [Compound 11],ΔTm at 10 µM,CSNK2A2,2.2 °C
same,Population apoptotic cell (%),"U2OS cells; human, 0 h, 1 µM",66.67%
